From US11744816B2, “Fixed dose combinations and formulations comprising ETC1002 and ezetimibe and methods of treating or reducing the risk of cardiovascular disease” (Esperion Therapeutics, Inc., priority 2015, dated 2023)
“Also recorded” adds a separate entry of the source.

Key:
[1] = test system: hypercholesterolemic patients; assay: Phase 2b double-blind trial: safety, treatment-emergent adverse events and laboratory abnormalities; conditions: for Most common AEs: ALT increased / Most common AEs: AST increased / Most common AEs: Arthralgia / Most common AEs: Back pain / Most common AEs: Blood CK increased / Most common AEs: Constipation / Most common AEs: Headache / Most common AEs: Myalgia / Most common AEs: Nasopharyngitis / Most common AEs: Upper respiratory tract infection / Most common AEs: Urinary tract infection / Treatment-emergent AEs: Any AE(s) / Treatment-emergent AEs: Discontinuation due to AE(s) / Treatment-emergent AEs: Serious AE(s) / Treatment-emergent AEs: Study drug-related AE(s) / Any muscle-related AE / Muscle-related AE leading to discontinuation / Muscle-related AEs: Muscle spasms / Muscle-related AEs: Muscular weakness / Muscle-related AEs: Musculoskeletal chest pain / Muscle-related AEs: Musculoskeletal stiffness / Muscle-related AEs: Myalgia / Muscle-related AEs: Pain in extremity / Muscle-related AEs: Sensation of heaviness / Muscle-related AEs: Musculoskeletal pain: 12 weeks; for Most common AEs: ALT increased / Most common AEs: AST increased / Most common AEs: Arthralgia / Most common AEs: Back pain / Most common AEs: Blood CK increased / Most common AEs: Constipation / Most common AEs: Headache / Most common AEs: Myalgia / Most common AEs: Nasopharyngitis / Most common AEs: Upper respiratory tract infection / Most common AEs: Urinary tract infection / Treatment-emergent AEs: Any AE(s) / Treatment-emergent AEs: Discontinuation due to AE(s) / Treatment-emergent AEs: Serious AE(s) / Treatment-emergent AEs: Study drug-related AE(s): safety population; for Myalgia, patients affected: entire study population
Procedure: The study population included both statin-tolerant and statin-intolerant participants. Statin intolerance was defined as the inability to tolerate ≥2 statins because of muscle-related symptoms such as pain, weakness, or cramping that began or increased during statin therapy and resolved on statin discontinuation. At least 1 statin must have been administered at the lowest approved daily dose, defined as rosuvastatin 5 mg, atorvastatin 10 mg, simvastatin 10 mg, lovastatin 20 mg, pravastatin 40 mg, fluvastatin 40 mg, or pitavastatin 2 mg. Treatment with less than the lowest approved daily dose of a statin (i.e., skipping days) was considered equivalent to not tolerating 1 statin at the lowest approved daily dose.
Patients underwent a 5-week washout of all lipid-regulating drugs and dietary supplements and abstained from these drugs and supplements throughout the study. Patients also underwent a 5-week patient-only-blinded placebo run-in during the screening period (week −5 to week 0). This single-blind placebo run-in period was used to eliminate patients with muscle-related AEs during placebo treatment. Patients reporting new or worsening, unexplained muscle-related AEs during this run-in period were excluded from the study.
Patients were stratified (1:1) by history of statin intolerance and randomized at week 0 in a 4:4:4:1:1 ratio to once-daily treatment with capsules containing ETC-1002 120 mg, ETC-1002 180 mg, EZE, ETC-1002 120 mg plus EZE, or ETC-1002 180 mg plus EZE.
The safety of ETC-1002 was assessed using treatment-emergent AEs; hematology, serum chemistry, and urinalysis laboratory values; physical examination findings, vital sign measurements, electrocardiogram (ECG) readings; weight; and ankle and waist circumference measurements. AEs were coded using the Medical Dictionary for Regulatory Activities version 16.0 and evaluated by the investigator for severity and relation to study drug. Muscle-related AEs were defined as those from the system organ class of musculoskeletal and connective tissue disorders, except for those that were not obviously muscle related Terms included in the muscle-related AFE analysis were selected from this system organ class after database lock and before unblinding.
Safety analyses were performed on the safety population, which included randomized patients who received at least 1 dose of study drug. Baseline patient characteristics were summarized for the safety population by treatment group and statin-tolerance subgroup.
Muscle-related AEs also were summarized by statin-tolerance subgroup.

[2] = test system: hypercholesterolemic patients; assay: Phase 2b double-blind trial: percent changes from baseline to week 12 in lipids and CRP; assay type: in vivo, human; conditions: for Percent change from baseline to week 12 in Apolipoprotein A-I / Percent change from baseline to week 12 in Apolipoprotein B / Percent change from baseline to week 12 in HDL particle number / Percent change from baseline to week 12 in HDL-C / Percent change from baseline to week 12 in LDL particle number / Percent change from baseline to week 12 in LDL-C / Percent change from baseline to week 12 in Non-HDL-C / Percent change from baseline to week 12 in Total cholesterol / Percent change from baseline to week 12 in VLDL particle number: 12 weeks, mITT; for Percent change from baseline to week 12 in Apolipoprotein A-I / Percent change from baseline to week 12 in Apolipoprotein B / Percent change from baseline to week 12 in HDL particle number / Percent change from baseline to week 12 in HDL-C / Percent change from baseline to week 12 in LDL particle number / Percent change from baseline to week 12 in LDL-C / Percent change from baseline to week 12 in Non-HDL-C / Percent change from baseline to week 12 in Total cholesterol: LS mean ± SE; for Percent change from baseline to week 12 in VLDL particle number: median (interquartile range)
Procedure: LDL-C was calculated using the Friedewald equation.
The primary endpoint was the percent change from baseline to week 12 in calculated LDL-C in patients treated with ETC-1002 monotherapy versus those treated with EZE alone. Secondary endpoints included the dose-response relationship between ETC-1002 and the percent change in LDL-C from baseline to week 12, the percent change in LDL-C from baseline to week 12 in patients treated with ETC-1002 plus EZE versus those treated with EZE alone, and the percent change from baseline to week 12 for all treatment groups in LDL particle number, apolipoprotein B, total cholesterol, non-high-density lipoprotein cholesterol (non-HDL-C), HDL-C, HDL particle number, apolipoprotein A-I, triglycerides, very-low-density lipoprotein (VLDL) particle number, and high-sensitivity C-reactive protein (CRP). Lipoprotein particle number was measured using nuclear magnetic resonance […].
An analysis of covariance was used to compare each ETC-1002 treatment group with EZE monotherapy for each of the efficacy endpoints. The primary model included the effects of treatment and statin intolerance and the baseline value as a covariate. Baseline was defined as the mean of values from weeks −1 and 0 for LDL-C, non-HDL-C, total cholesterol, HDL-C, and triglycerides. For all other lipid and biomarker measures, baseline was defined as the last value before the first dose of study drug. Missing values at week 12 were imputed using the last-observation-carried-forward procedure. When LDL-C could not be calculated (i.e., triglycerides >400 mg/dL), beta-quantification measurements were used to determine LDL-C values. Least-squares (LS) means and standard errors were obtained for each treatment group; differences in LS means and p-values were obtained for the treatment comparisons. Graphical methods (e.g., normal probability plot and histogram of residuals, plot of residuals vs. predicted values) or analytical methods (e.g., Shapiro-Wilk test), or both, were used to assess the model assumptions. Because of departures from normality observed in the parameters of triglycerides, CRP, and VLDL particle number, nonparametric analyses were performed for these measures, with p-values obtained from the Wilcoxon rank-sum test and median values presented.
Percent changes from baseline in LDL-C also were summarized by statin-tolerance subgroup. To assess the dose-response relationship for ETC-1002 monotherapy, the primary analysis of covariance model was used for the comparison of the ETC-1002 120 mg and ETC-1002 180 mg. Statistical testing of the efficacy endpoints was 2-sided and conducted at the 5% level of significance with no adjustment for multiple comparisons.

[3] = ETC-1002 120 mg once daily, statin-intolerant patients
[4] = ETC-1002 120 mg once daily, statin-tolerant patients
[5] = ETC-1002 180 mg once daily, statin-intolerant patients
[6] = ETC-1002 180 mg once daily, statin-tolerant patients

Compound: CC(C)(CCCCCC(O)CCCCCC(C)(C)C(=O)O)C(=O)O [ETC-1002, 8-hydroxy-2,2,14,14 tetramethylpentadecanedioic acid]
- Alanine aminotransferase or aspartate aminotransferase, or both, increased >3 times the upper limit of normal at any measurement ([1]; ETC-1002 120 mg): 1 patients
- Serious AEs reported (events) ([1]; ETC-1002 120 mg): hemothorax; also recorded: sudden death
- Most common AEs: ALT increased ([1]; ETC-1002 120 mg once daily): 0 n (%)
- Most common AEs: AST increased ([1]; ETC-1002 120 mg once daily): 0 n (%)
- Most common AEs: Arthralgia ([1]; ETC-1002 120 mg once daily): 4 (4%) n (%)
- Most common AEs: Back pain ([1]; ETC-1002 120 mg once daily): 1 (1%) n (%)
- Most common AEs: Blood CK increased ([1]; ETC-1002 120 mg once daily): 1 (1%) n (%)
- Most common AEs: Constipation ([1]; ETC-1002 120 mg once daily): 3 (3%) n (%)
- Most common AEs: Headache ([1]; ETC-1002 120 mg once daily): 3 (3%) n (%)
- Most common AEs: Myalgia ([1]; ETC-1002 120 mg once daily): 3 (3%) n (%)
- Most common AEs: Nasopharyngitis ([1]; ETC-1002 120 mg once daily): 3 (3%) n (%)
- Most common AEs: Upper respiratory tract infection ([1]; ETC-1002 120 mg once daily): 6 (6%) n (%)
- Most common AEs: Urinary tract infection ([1]; ETC-1002 120 mg once daily): 0 n (%)
- Treatment-emergent AEs: Any AE(s) ([1]; ETC-1002 120 mg once daily): 50 (51%) n (%)
- Treatment-emergent AEs: Discontinuation due to AE(s) ([1]; ETC-1002 120 mg once daily): 3 (3%) n (%)
- Treatment-emergent AEs: Serious AE(s) ([1]; ETC-1002 120 mg once daily): 2 (2%) n (%)
- Treatment-emergent AEs: Study drug-related AE(s) ([1]; ETC-1002 120 mg once daily): 13 (13%) n (%)
- Any muscle-related AE [1, 3]: 7 (14%) n (%)
- Muscle-related AE leading to discontinuation [1, 3]: 1 (2%) n (%)
- Muscle-related AEs: Muscle spasms [1, 3]: 3 (6%) n (%)
- Muscle-related AEs: Muscular weakness [1, 3]: 2 (4%) n (%)
- Muscle-related AEs: Musculoskeletal chest pain [1, 3]: 0 n (%)
- Muscle-related AEs: Musculoskeletal stiffness [1, 3]: 0 n (%)
- Muscle-related AEs: Myalgia [1, 3]: 2 (4%) n (%)
- Muscle-related AEs: Pain in extremity [1, 3]: 1 (2%) n (%)
- Muscle-related AEs: Sensation of heaviness [1, 3]: 0 n (%)
- Any muscle-related AE [1, 4]: 1 (2%) n (%)
- Muscle-related AE leading to discontinuation [1, 4]: 0 n (%)
- Muscle-related AEs: Muscle spasms [1, 4]: 0 n (%)
- Muscle-related AEs: Musculoskeletal pain [1, 4]: 0 n (%)
- Muscle-related AEs: Myalgia [1, 4]: 1 (2%) n (%)
- Myalgia, patients affected ([1]; ETC-1002 120 mg): 3%
- Alanine aminotransferase or aspartate aminotransferase, or both, increased >3 times the upper limit of normal at any measurement ([1]; ETC-1002 180 mg): 2 patients
- Serious AEs reported (events) ([1]; ETC-1002 180 mg): pancreatitis relapse
- Most common AEs: ALT increased ([1]; ETC-1002 180 mg once daily): 0 n (%)
- Most common AEs: AST increased ([1]; ETC-1002 180 mg once daily): 0 n (%)
- Most common AEs: Arthralgia ([1]; ETC-1002 180 mg once daily): 1 (1%) n (%)
- Most common AEs: Back pain ([1]; ETC-1002 180 mg once daily): 1 (1%) n (%)
- Most common AEs: Blood CK increased ([1]; ETC-1002 180 mg once daily): 4 (4%) n (%)
- Most common AEs: Constipation ([1]; ETC-1002 180 mg once daily): 1 (1%) n (%)
- Most common AEs: Headache ([1]; ETC-1002 180 mg once daily): 2 (2%) n (%)
- Most common AEs: Myalgia ([1]; ETC-1002 180 mg once daily): 1 (1%) n (%)
- Most common AEs: Nasopharyngitis ([1]; ETC-1002 180 mg once daily): 5 (5%) n (%)
- Most common AEs: Upper respiratory tract infection ([1]; ETC-1002 180 mg once daily): 6 (6%) n (%)
- Most common AEs: Urinary tract infection ([1]; ETC-1002 180 mg once daily): 4 (4%) n (%)
- Treatment-emergent AEs: Any AE(s) ([1]; ETC-1002 180 mg once daily): 55 (55%) n (%)
- Treatment-emergent AEs: Discontinuation due to AE(s) ([1]; ETC-1002 180 mg once daily): 6 (6%) n (%)
- Treatment-emergent AEs: Serious AE(s) ([1]; ETC-1002 180 mg once daily): 1 (1%) n (%)
- Treatment-emergent AEs: Study drug-related AE(s) ([1]; ETC-1002 180 mg once daily): 18 (18%) n (%)
- Any muscle-related AE [1, 5]: 6 (12%) n (%)
- Muscle-related AE leading to discontinuation [1, 5]: 2 (4%) n (%)
- Muscle-related AEs: Muscle spasms [1, 5]: 2 (4%) n (%)
- Muscle-related AEs: Muscular weakness [1, 5]: 1 (2%) n (%)
- Muscle-related AEs: Musculoskeletal chest pain [1, 5]: 1 (2%) n (%)
- Muscle-related AEs: Musculoskeletal stiffness [1, 5]: 0 n (%)
- Muscle-related AEs: Myalgia [1, 5]: 1 (2%) n (%)
- Muscle-related AEs: Pain in extremity [1, 5]: 1 (2%) n (%)
- Muscle-related AEs: Sensation of heaviness [1, 5]: 0 n (%)
- Any muscle-related AE [1, 6]: 0 n (%)
- Muscle-related AE leading to discontinuation [1, 6]: 0 n (%)
- Muscle-related AEs: Muscle spasms [1, 6]: 0 n (%)
- Muscle-related AEs: Musculoskeletal pain [1, 6]: 0 n (%)
- Muscle-related AEs: Myalgia [1, 6]: 0 n (%)
- Myalgia, patients affected ([1]; ETC-1002 180 mg): 1%
- Decrease in median CRP from baseline to week 12 endpoint ([2]; ETC-1002 120 mg): 30%
- LDL-C reduction from baseline to week 12 ([2]; ETC-1002 120 mg alone): 27%
- Percent change from baseline to week 12 in Apolipoprotein A-I ([2]; ETC-1002 120 mg once daily): −0.2 ± 1.1%
- Percent change from baseline to week 12 in Apolipoprotein B ([2]; ETC-1002 120 mg once daily): −19.3 ± 1.3 %
- Percent change from baseline to week 12 in HDL particle number ([2]; ETC-1002 120 mg once daily): 5.0 ± 1.3%
- Percent change from baseline to week 12 in HDL-C ([2]; ETC-1002 120 mg once daily): −5.8 ± 1.4 %
- Percent change from baseline to week 12 in LDL particle number ([2]; ETC-1002 120 mg once daily): −21.8 ± 1.7 %
- Percent change from baseline to week 12 in LDL-C ([2]; ETC-1002 120 mg once daily): −27.5 ± 1.3 %
- Percent change from baseline to week 12 in Non-HDL-C ([2]; ETC-1002 120 mg once daily): −23.2 ± 1.2 %
- Percent change from baseline to week 12 in Total cholesterol ([2]; ETC-1002 120 mg once daily): −19.3 ± 0.9 %
- Percent change from baseline to week 12 in VLDL particle number ([2]; ETC-1002 120 mg once daily): −2.7 (68.5) %
- Decrease in median CRP from baseline to week 12 endpoint ([2]; ETC-1002 180 mg): 40%
- LDL-C reduction from baseline to week 12 ([2]; ETC-1002 180 mg alone): 30%
- Percent change from baseline to week 12 in Apolipoprotein A-I ([2]; ETC-1002 180 mg once daily): 0.1 ± 1.2%
- Percent change from baseline to week 12 in Apolipoprotein B ([2]; ETC-1002 180 mg once daily): −21.3 ± 1.3 %
- Percent change from baseline to week 12 in HDL particle number ([2]; ETC-1002 180 mg once daily): 6.2 ± 1.4%
- Percent change from baseline to week 12 in HDL-C ([2]; ETC-1002 180 mg once daily): −4.8 ± 1.4 %
- Percent change from baseline to week 12 in LDL particle number ([2]; ETC-1002 180 mg once daily): −24.6 ± 1.8 %
- Percent change from baseline to week 12 in LDL-C ([2]; ETC-1002 180 mg once daily): −30.1 ± 1.3 %
- Percent change from baseline to week 12 in Non-HDL-C ([2]; ETC-1002 180 mg once daily): −25.3 ± 1.1 %
- Percent change from baseline to week 12 in Total cholesterol ([2]; ETC-1002 180 mg once daily): −20.7 ± 0.9 %
- Percent change from baseline to week 12 in VLDL particle number ([2]; ETC-1002 180 mg once daily): 15.3 (80.5) %
- LDL-C reduction from baseline to week 12 ([2]; ETC-1002 alone (120 mg or 180 mg), up to): up to 30%
